Tested on: HCCLM3 cells
Test: GI50 in HCCLM3 cells, cell viability by MTS assay
Type: cell-based
Details: Homo sapiens, 72 hours incubation, triplicates, read-out: HCCLM3 activity range (GI50)
Procedure: To investigate the effects of compounds on hepatocellular carcinoma (HCC) cell viability, HCCLM3 cells (HCC cells with high metastatic potential) were incubated with increasing concentrations of test compounds for 72 hours. Cell viability was evaluated at the end of incubation period by MTS assay. […] All samples were evaluated in triplicates.
As set forth in Table 1 below, GI50 values are defined as follows: GI50≤10 μM (+++); GI50>10 μM and ≤20 μM (++); GI50>20 μM (+).

Row | Structure (SMILES) | GI50 [µM]
1 | COc1cc2nccc(Oc3ccc(NC(=O)C4(C(=O)NC56CC(c7cnccn7)(C5)C6)CC4)cc3)c2cc1OC [Compound 9, N-(4-((6,7-dimethoxyquinolin-4-yl)oxy)phenyl)-N-(3-(pyrazin-2-yl)bicyclo[1.1.1]pentan-1-yl)cyclopropane-1,1-dicarboxamide] | > 20
2 | COc1cc2nccc(Oc3ccc(NC(=O)C4(C(=O)N5C6CCCC5CCC6)CC4)cc3)c2cc1OC [Compound 26, 1-((1s,5s)-9-azabicyclo[3.3.1]nonane-9-carbonyl)-N-(4-((6,7-dimethoxyquinolin-4-yl)oxy)phenyl)cyclopropane-1-carboxamide] | > 20
3 | COc1cc2nccc(Oc3ccc(NC(=O)C4(C(=O)NC56CC(O)(C5)C6)CC4)cc3)c2cc1OC [Compound 6, N-(4-((6,7-dimethoxyquinolin-4-yl)oxy)phenyl)-N-(3-hydroxybicyclo[1.1.1]pentan-1-yl)cyclopropane-1,1-dicarboxamide] | > 20
4 | COc1cc2nccc(Oc3ccc(NC(=O)C4(C(=O)N5C[C@@H]6[C@H](C5)[C@H]6C(N)=O)CC4)cc3)c2cc1OC [Compound 22, EXO-3-(1-((4-((6,7-dimethoxyquinolin-4-yl)oxy)phenyl)carbamoyl)cyclopropane-1-carbonyl)-3-azabicyclo[3.1.0]hexane-6-carboxamide] | > 20
5 | COc1cc2nccc(Oc3ccc(NC(=O)C4(C(=O)NC56CC(c7ccccc7)(C5)C6)CC4)cc3)c2cc1OC [Compound 2, N-(4-((6,7-dimethoxyquinolin-4-yl)oxy)phenyl)-N-(3-phenylbicyclo[1.1.1]pentan-1-yl)cyclopropane-1,1-dicarboxamide] | > 20
6 | CCOC(=O)[C@@H]1C2CCC(CC2)[C@H]1NC(=O)C1(C(=O)Nc2ccc(Oc3ccnc4cc(OC)c(OC)cc34)cc2)CC1 [Compound 16, ethyl (2R,3R)-3-(1-((4-((6,7-dimethoxyquinolin-4-yl)oxy)phenyl)carbamoyl)cyclopropane-1-carboxamido)bicyclo[2.2.2]octane-2-carboxylate] | > 20

Now from value to molecule:

Row | GI50 [µM] | Structure (SMILES)
7 | > 20 | COc1cc2nccc(Oc3ccc(NC(=O)C4(C(=O)NC56CC(OC(=O)c7ccccc7)(C5)C6)CC4)cc3)c2cc1OC [Compound 5, 3-(1-((4-((6,7-dimethoxyquinolin-4-yl)oxy)phenyl)carbamoyl)cyclopropane-1-carboxamido)bicyclo[1.1.1]pentan-1-yl benzoate]
8 | 10 to 20 | COc1cc2nccc(Oc3ccc(NC(=O)C4(C(=O)NC56CCC(CC5)CC6)CC4)cc3)c2cc1OC [Compound 24, N-(bicyclo[2.2.2]octan-1-yl)-N-(4-((6,7-dimethoxyquinolin-4-yl)oxy)phenyl)cyclopropane-1,1-dicarboxamide]
9 | > 20 | COc1cc2nccc(Oc3ccc(NC(=O)C4(C(=O)NC56CC(N)(C5)C6)CC4)cc3)c2cc1OC [Compound 12, N-(3-aminobicyclo[1.1.1]pentan-1-yl)-N-(4-((6,7-dimethoxyquinolin-4-yl)oxy)phenyl)cyclopropane-1,1-dicarboxamide]
10 | 10 to 20 | COc1cc2nccc(Oc3ccc(NC(=O)C4(C(=O)NC56CC7CC(CC(C7)C5)C6)CC4)cc3)c2cc1OC [Compound 28, N-((3R,5R)-adamantan-1-yl)-N-(4-((6,7-dimethoxyquinolin-4-yl)oxy)phenyl)cyclopropane-1,1-dicarboxamide]
11 | ≤ 10 | COc1cc2nccc(Oc3ccc(NC(=O)C4(C(=O)NC56CC(CO)(C5)C6)CC4)cc3)c2cc1OC [Compound 32, N-(4-((6,7-dimethoxyquinolin-4-yl)oxy)phenyl)-N-(3-(hydroxymethyl)bicyclo[1.1.1]pentan-1-yl)cyclopropane-1,1-dicarboxamide]
12 | ≤ 10 | COc1cc2nccc(Oc3ccc(NC(=O)C4(C(=O)NC56CC(C)(C5)C6)CC4)cc3)c2cc1OC [Compound 10, N-(4-((6,7-dimethoxyquinolin-4-yl)oxy)phenyl)-N-(3-methylbicyclo[1.1.1]pentan-1-yl)cyclopropane-1,1-dicarboxamide]
